Reference: patent US11883387B2, “PqsR inverse agonists” (HELMHOLTZ-ZENTRUM FÜR INFEKTIONSFORSCHUNG GMBH, priority 2018, dated 2024)

Columns and labels:
[1] = test system: P. aeruginosa pyocyanin production; assay: Pyocyanin assay; type: cell-based, P. aeruginosa PA14; settings: Pseudomonas aeruginosa, PA14, 16 h, read-out: IC50-value towards pyocyanin production, PA14 in PPGAS medium, 16 h
Method in brief: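 PA14 in PPGAS medium from OD600 0.02 grown 16 h at 37 °C, 200 rpm, with compounds. Pyocyanin extracted with chloroform, back-extracted into 0.2 M HCl, OD520 normalised to OD600.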

PqsR = PqsR (Pseudomonas aeruginosa, UniProt Q9I4X0); assay: E. coli based β-galactosidase reporter gene assay (PqsR inverse agonistic activity); type: cell-based; parameters: expressed in transfected cells; host or cells: Escherichia coli DH5α
Method in brief: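 E. coli DH5α carrying pEAL08-2 (tac-driven pqsR with pqsA-lacZ) was grown to OD600 0.2 and incubated with 0.001–10 μM compound plus 50 nM PQS for 2.5 h at 37 °C. β-Galactosidase activity was measured by ONPG conversion in permeabilized cells and normalized between the no-PQS and solvent controls. IC50 came from concentration variation.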

[2] = Metabolic stability in mouse liver microsomes (MLM); type: in vitro ADME; settings: 1 μM compound, 0.5 mg/mL MLM, 1 mM NADPH, 37° C., read-out: half-life (t1/2) towards MLM
Method: For the evaluation of phase I metabolic stability, the compound (1 μM) was incubated with 0.5 mg/mL MLM (Corning) and 1 mM NADPH at 37° C. for 0, 5, 10, 15 and 30 min. The metabolic stability of Verapamil, Diphenhydramine and Benzydamine (1 μM each) were determined in parallel to confirm the enzymatic activity of the MLM. The incubation was stopped by addition of 2 volumes of acetonitrile containing internal standard (1 μM Leucine Enkephaline). Samples were centrifuged (15 min, 3,500 rpm). Concentration of the remaining test compound at the different time points was analyzed by HPLC-MS/MS and used to determine half-life (t1/2).

[3] = Kinetic Turbidimetric Aqueous Solubility at room temperature for 5 min; type: physicochemical; settings: PBS buffer, kinetic from dmso stock, 2% DMSO
Method: Kinetic Turbidimetric Aqueous Solubility at room temperature for 5 min. Test compound was diluted in PBS buffer to give a range of concentrations (typically 0.4, 2, 4, 20, 40, 100, and 200 μM, final DMSO concentration 2%) and incubated at room temperature for 5 min. Absorbance was measured at a wavelength of 620 nm and the solubility was estimated from the concentration of test compound that produces an increase in absorbance above the vehicle control (i.e., […]). Data was analyzed by fitting a four parameter sigmoidal function to the measured and normalized absorbances and AUC calculation providing access to Log S (decadic logarithm of the solubility).

PqsR, sequence (Q9I4X0 whole entry): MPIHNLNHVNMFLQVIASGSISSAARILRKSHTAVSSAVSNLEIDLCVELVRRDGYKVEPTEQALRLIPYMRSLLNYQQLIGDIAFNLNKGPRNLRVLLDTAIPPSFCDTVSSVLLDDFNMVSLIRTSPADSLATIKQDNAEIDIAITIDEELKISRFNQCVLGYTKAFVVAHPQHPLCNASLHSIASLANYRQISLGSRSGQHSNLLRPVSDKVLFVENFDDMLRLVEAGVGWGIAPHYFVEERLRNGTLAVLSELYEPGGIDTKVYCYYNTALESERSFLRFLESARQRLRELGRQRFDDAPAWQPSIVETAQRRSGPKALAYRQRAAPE

SMILES	IC50 [1]	IC50 (PqsR)	half-life at 1 μM [2]	solubility at 5 min [3]
FC(F)(F)c1cc(NCc2cn(-c3ccc(Oc4ccccc4)cc3)nn2)cc(I)n1 [Compound 007, 2-Iodo-N-((1-(4-phenoxyphenyl)-1H-1,2,3-triazol-4-yl)methyl)-6-(trifluoromethyl)pyridin-4-amine]	251 to 1000 nM	≤ 50 nM	0.517 to 1 h	
FC(F)(F)c1cc(NCc2cn(-c3ccc(Oc4cccc(Cl)c4)cc3)nn2)ccn1 [Compound 030, N-((1-(4-(3-Chlorophenoxy)phenyl)-1H-1,2,3-triazol-4-yl)methyl)-2-(trifluoromethyl)pyridin-4-amine]		≤ 50 nM	> 1 h	
FC(F)(F)c1cc(NCc2cn(-c3ccc(Oc4ccccc4)cc3)nn2)cc(Cl)n1 [Compound 032, 2-Chloro-N-((1-(4-phenoxyphenyl)-1H-1,2,3-triazol-4-yl)methyl)-6-(trifluoromethyl)pyridin-4-amine]		≤ 50 nM	> 1 h	
FC(F)(F)c1cc(NCc2cn(-c3ccc(Oc4ccc(Cl)cc4)cc3)nn2)ccn1 [Compound 037, N-((1-(4-(4-Chlorophenoxy)phenyl)-1H-1,2,3-triazol-4-yl)methyl)-2-(trifluoromethyl)pyridin-4-amine]		≤ 50 nM	> 1 h	> 10 µM
FC(F)(F)c1cc(NCc2cn(-c3ccc(Br)cc3)nn2)ccn1 [Compound 039, N-((1-(4-Bromophenyl)-1H-1,2,3-triazol-4-yl)methyl)-2-(trifluoromethyl)pyridin-4-amine]		251 to 1000 nM	0.517 to 1 h	> 50 µM
N#Cc1cc(NCc2cn(-c3ccc(Oc4ccccc4)cc3)nn2)ccn1 [Compound 041, 4-(((1-(4-Phenoxyphenyl)-1H-1,2,3-triazol-4-yl)methyl)amino)picolinonitrile]		≤ 50 nM	0.517 to 1 h	> 10 µM
Clc1cc(NCc2cn(-c3ccc(Oc4ccccc4)cc3)nn2)cc(Cl)n1 [Compound 048, 2,6-Dichloro-N-((1-(4-phenoxyphenyl)-1H-1,2,3-triazol-4-yl)methyl)pyridin-4-amine]	≤ 250 nM	≤ 50 nM	0.517 to 1 h	
O=C(c1ccccc1)c1ccc(-n2cc(CSc3ccnc(C(F)(F)F)c3)nn2)cc1 [Compound 057, Phenyl(4-(4-(((2-(trifluoromethyl)pyridin-4-yl)thio)methyl)-1H-1,2,3-triazol-1-yl)phenyl)methanone]		51 to 250 nM	> 1 h	
Nc1cc(SCc2cnc(-c3ccc(Oc4ccccc4)cc3)s2)nc(C(F)(F)F)n1 [Compound 068, 6-(((2-(4-phenoxyphenyl)thiazol-5-yl)methyl)thio)-2-(trifluoromethyl)pyrimidin-4-amine]			> 1 h	> 10 µM
COc1ccc(-c2ncc(CSc3cc(N)nc(C(F)(F)F)n3)s2)cc1Cl [Compound 069, 6-(((2-(3-chloro-4-methoxyphenyl)thiazol-5-yl)methyl)thio)-2-(trifluoromethyl) pyrimidin-4-amine]			> 1 h	> 25 µM
Fc1ccc(Oc2ccc(-c3nc(CNc4ccnc(C(F)(F)F)c4)cs3)cn2)cc1 [Compound 083, N-((2-(6-(4-Fluorophenoxy)pyridin-3-yl)thiazol-4-yl)methyl)-2-(trifluoromethyl)pyridin-4-amine]		51 to 250 nM	> 1 h	
Fc1ccc(Oc2ccc(-c3nc(CNc4ccnc(C(F)(F)F)c4)cs3)cc2)cc1 [Compound 088, N-((2-(4-(4-Fluorophenoxy)phenyl)thiazol-4-yl)methyl)-2-(trifluoromethyl)pyridin-4-amine]		≤ 50 nM	> 1 h	
FC(F)(F)c1cc(NCc2cnc(-c3ccc(Oc4ccccc4)cc3)s2)cc(Cl)n1 [Compound 092, 2-Chloro-N-((2-(4-phenoxyphenyl)thiazol-5-yl)methyl)-6-(trifluoromethyl)pyridin-4-amine]	251 to 1000 nM	≤ 50 nM	0.517 to 1 h	
Clc1cc(NCc2cnc(-c3ccc(Oc4ccccc4)cc3)s2)ccn1 [Compound 093, 2-Chloro-N-((2-(4-phenoxyphenyl)thiazol-5-yl)methyl)pyridin-4-amine]	251 to 1000 nM	≤ 50 nM	0.517 to 1 h	
FC(F)(F)c1cc(NCc2ccc(-c3cccc(Oc4ccccc4)c3)cn2)ccn1 [Compound 103, N-((5-(3-Phenoxyphenyl)pyridin-2-yl)methyl)-2-(trifluoromethyl)pyridin-4-amine]	1000 to 5000 nM	251 to 1000 nM	0.517 to 1 h	
FC(F)(F)c1cc(NCc2cc(-c3ccc(Oc4ccccc4)cc3)no2)ccn1 [Compound 139, N-((3-(4-phenoxyphenyl)isoxazol-5-yl)methyl)-2-(trifluoromethyl)pyridin-4-amine]		≤ 50 nM	0.517 to 1 h	
Fc1cccc(Oc2ccc(-n3cc(CNc4ccnc(C(F)(F)F)c4)nn3)cc2)c1 [Compound 145, N-((1-(4-(3-fluorophenoxy)phenyl)-1H-1,2,3-triazol-4-yl)methyl)-2-(trifluoromethyl)pyridin-4-amine]	≤ 250 nM	≤ 50 nM		> 25 µM
FC(F)(F)c1cc(NCc2cn(-c3ccc(OC4CCOC4)c(Cl)c3)nn2)ccn1 (stereo not shown) [Compound 153, N-((1-(3-chloro-4-((tetrahydrofuran-3-yl)oxy)phenyl)-1H-1,2,3-triazol-4-yl)methyl)-2-(trifluoromethyl)pyridin-4-amine]	251 to 1000 nM	≤ 50 nM		> 25 µM
FC(F)(F)c1cc(NCc2cn(-c3ccc(OC4CC4)c(Cl)c3)nn2)ccn1 [Compound 154, N-((1-(3-chloro-4-cyclopropoxyphenyl)-1H-1,2,3-triazol-4-yl)methyl)-2-(trifluoromethyl)pyridin-4-amine]	251 to 1000 nM	≤ 50 nM		> 10 µM
CC(C)Oc1ccc(-n2cc(CNc3ccnc([N+](=O)[O-])c3)nn2)cc1Cl [Compound 157, N-((1-(3-chloro-4-isopropoxyphenyl)-1H-1,2,3-triazol-4-yl)methyl)-2-nitropyridin-4-amine]	≤ 250 nM	≤ 50 nM		> 10 µM
CC(C)Oc1ccc(-c2ncc(CNc3cc(Cl)nc(C(F)(F)F)c3)s2)cc1 [Compound 161, 2-Chloro-N-((2-(4-isopropoxyphenyl)thiazol-5-yl)methyl)-6-(trifluoromethyl)pyridin-4-amine]	≤ 250 nM	≤ 50 nM		> 25 µM
CC(C)Oc1ccc(-c2ncc(CNc3cc(Cl)nc(C(F)(F)F)c3)cn2)cc1Cl [Compound 166]	≤ 250 nM	≤ 50 nM		> 25 µM
FC(F)(F)c1cc(SCc2nc3cc(Sc4ccccc4)ccc3[nH]2)ccn1 [Compound 176, 5-(phenylthio)-2-(((2-(trifluoromethyl)pyridin-4-yl)thio)methyl)-1H-benzo[d]imidazole]	251 to 1000 nM	≤ 50 nM		> 10 µM
FC(F)(F)c1cc(OCc2nc3cc(Oc4ccccc4)ccc3[nH]2)ccn1 [Compound 177, 5-phenoxy-2-(((2-(trifluoromethyl)pyridin-4-yl)oxy)methyl)-1H-benzo[d]imidazole]	1000 to 5000 nM	251 to 1000 nM		> 25 µM
COC(=O)c1ccc(Oc2ccc3[nH]c(CSc4ccnc(C(F)(F)F)c4)nc3c2)cc1 [Compound 179, methyl 4-((2-(((2-(trifluoromethyl)pyridin-4-yl)thio)methyl)-1H-benzo[d]imidazol-5-yl)oxy)benzonate]	1000 to 5000 nM	251 to 1000 nM		> 10 µM
Fc1cc2nc(CSc3ccnc(C(F)(F)F)c3)[nH]c2cc1Cl [Compound 180, 6-chloro-5-fluoro-2-(((2-(trifluoromethyl)pyridin-4-yl)thio)methyl)-1H-benzo[d]imidazole]	1000 to 5000 nM	251 to 1000 nM		> 50 µM
FC(F)(F)c1cc(NCc2nc3cc(Oc4ccccc4)ccc3[nH]2)ccn1 [Compound 182, N-((5-phenoxy-1H-benzo[d]imidazol-2-yl)methyl)-2-(trifluoromethyl)pyridin-4-amine]	251 to 1000 nM	≤ 50 nM		> 50 µM
Nc1cc(SCc2nc3cc(Oc4ccccc4)ccc3[nH]2)cc(C(F)(F)F)n1 [Compound 183, 4-(((5-phenoxy-1H-benzo[d]imidazol-2-yl)methyl)thio)-6-(trifluoromethyl)pyridin-2-amine]	≤ 250 nM	≤ 50 nM		> 25 µM
